Consider 20 compounds from patent US11414429B2, “Compound or pharmaceutically acceptable salt thereof” (RIKEN, priority 2016, dated 2022).

One assay concerns the target T1, tankyrase 2 (TNKS 2) (Homo sapiens, UniProt Q9H2K2).
T1 construct: 613-1, 116aa; made in house; host or cells: cell-free protein synthesis system
The assay is described as follows: Tankyrase inhibitory activity test (ELISA, self-polyADP ribosylation), tankyrase 2. Type of assay: biochemical. Particulars: self-polyADP ribosylation. In outline:
(§1)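 IC50 was fitted to residual self-polyADP-ribosylation activity, detected by HRP-streptavidin chemiluminescence. Plate-bound Flag fusions (TNKS1 1,024-1,327aa SAM+PARP; TNKS2 613-1,116aa ANK5+SAM+PARP, cell-free synthesized) saw compound for 10 min at room temperature in 50 mM Tris-HCl pH 8.0, 4 mM MgCl2, 0.2 mM DTT. Reaction with 225 μM NAD/25 μM 6-biotin-17-NAD solution ran 45 min at 30 °C.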
In general terms: ELISA stands for enzyme-linked immunosorbent assay.

Another assay deals with T2, tankyrase 1 (TNKS 1) (Homo sapiens, UniProt O95271).
T2 construct: 1,024-1,327aa; made in house; host or cells: cell-free protein synthesis system
The experiment in a line: Tankyrase inhibitory activity test (ELISA, self-polyADP ribosylation), tankyrase 1. In kind it is biochemical. To be noted: self-polyADP ribosylation. In outline: as §1

For assay [1], the system named is human colorectal cancer cell line, COLO-320DM. The assay is described as follows: Cell proliferation inhibitory activity test (Celltiter-Glo Luminescent Cell Viability Assay). In kind it is cell-based. To be noted: COLO-320DM cells, 96 hours. In outline: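 GI50 is taken as the concentration halving cell growth versus 1% DMSO control, measured by ATP luminescence. Compound exposure lasted 96 h at 37° C. under 5% CO2, after overnight seeding in RPMI-1640 with 10% FBS and 2 mM glutamine.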
Background: In ATP-based viability assays light output follows the ATP content of the culture.

Where [2] appears, read: tankyrase 2, ELISA, read-out: TNKS2 inhibitory activity (IC50 class).
Setting [3] is: tankyrase 1, ELISA, read-out: TNKS1 inhibitory activity (IC50 class).
Where [4] appears, read: read-out: COLO-320 DM cell proliferation inhibitory activity (GI50 class).
[5] abbreviates: ELISA, class symbols, read-out: TNKS2 (inhibitory activity against tankyrase 2, IC50 value).
Where [6] appears, read: ELISA, class symbols, read-out: TNKS1 (inhibitory activity against tankyrase 1, IC50 value).
The mark [7] stands for this setting: class symbols, read-out: COLO-320 DM (cell proliferation inhibitory activity, GI50 value).

Like-named read-outs stand apart in the source and are kept apart here.

T2 sequence (O95271 1024-1327): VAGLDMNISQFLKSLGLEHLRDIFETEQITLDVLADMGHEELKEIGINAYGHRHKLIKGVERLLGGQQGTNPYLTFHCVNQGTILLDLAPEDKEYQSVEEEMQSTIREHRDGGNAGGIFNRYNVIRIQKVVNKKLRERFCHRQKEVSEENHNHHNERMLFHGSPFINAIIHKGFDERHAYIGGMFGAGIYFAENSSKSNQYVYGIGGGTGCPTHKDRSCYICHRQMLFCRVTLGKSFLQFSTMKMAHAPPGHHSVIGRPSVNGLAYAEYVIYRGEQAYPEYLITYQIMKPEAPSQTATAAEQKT
T1 sequence (Q9H2K2 613-1166): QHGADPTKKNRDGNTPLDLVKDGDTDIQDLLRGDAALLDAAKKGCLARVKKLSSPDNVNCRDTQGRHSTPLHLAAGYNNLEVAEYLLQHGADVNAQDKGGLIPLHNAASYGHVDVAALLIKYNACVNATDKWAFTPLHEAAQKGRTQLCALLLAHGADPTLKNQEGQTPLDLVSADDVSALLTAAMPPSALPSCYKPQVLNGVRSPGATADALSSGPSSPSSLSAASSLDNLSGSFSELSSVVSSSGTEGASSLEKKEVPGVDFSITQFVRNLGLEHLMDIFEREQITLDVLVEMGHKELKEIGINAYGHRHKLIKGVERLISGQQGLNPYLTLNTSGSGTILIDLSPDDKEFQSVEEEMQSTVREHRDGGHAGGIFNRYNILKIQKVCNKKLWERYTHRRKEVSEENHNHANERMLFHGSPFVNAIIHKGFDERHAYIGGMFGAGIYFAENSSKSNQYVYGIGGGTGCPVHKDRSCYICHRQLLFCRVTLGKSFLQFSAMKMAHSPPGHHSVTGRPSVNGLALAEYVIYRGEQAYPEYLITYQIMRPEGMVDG

Regarding `CN1C(=O)C2(CCN(c3nc4c(c(=O)[nH]3)CCCC4)CC2)c2c(Cl)cc(O)cc21` [Example 234, 4-chloro-6-hydroxy-1-methyl-1′-(4-oxo-3,4,5,6,7,8-hexahydro-quinazolin-2-yl)spiro [indoline-3,4′-piperidin]-2-one], the IC50 at tankyrase 2 (TNKS 2) (setting [2]) and on tankyrase 1 (TNKS 1) (setting [3]) was < 20 nM each time. Further, the GI50 in assay [1] (setting [4]) was 100 to 600 nM.
As for `CCN1CCCc2c1nc(N1CCC3(CC1)C(=O)N(CCO)c1cc(F)cc(F)c13)[nH]c2=O` [Example 382, 1′-(8-ethyl-4-oxo-3,4,5,6,7-hexahydropyrido-[2,3-d]pyrimidin-2-yl)-4,6-difluoro-1-(2-hy-droxyethyl)spiro [indoline-3,4′-piperidin]-2-one], the IC50 at tankyrase 2 (TNKS 2) (setting [2]) and at tankyrase 1 (TNKS 1) (setting [3]) was < 20 nM throughout. The GI50 in assay [1] (setting [4]) was in the range of 100 to 600 nM.
`CN1CCCc2c1nc(N1CCC3(CC1)C(=O)N(C)c1cc(N4CCN(C(=O)CO)CC4)cc(F)c13)[nH]c2=O` [Example 460, 4-fluoro-6-[4-(2-hydroxyacetyl)piperazin-1-yl]-1-meth-yl-1′-(8-methyl-4-oxo-3,4,5,6,7,8-hexahydropyrido [2,3-d]pyrimidin-2-yl)spiro[indole-3,4′-piperidine]-2-one]: the IC50 on tankyrase 2 (TNKS 2) (setting [5]) and on tankyrase 1 (TNKS 1) (setting [6]) was < 20 nM throughout. For the same compound, in assay [1] (setting [7]), the GI50 is 100 to 600 nM.
On to `CN1CCCc2c1nc(N1CCC3(CC1)C(=O)N(C)c1cc(OCC(=O)NS(C)(=O)=O)cc(F)c13)[nH]c2=O` [Example 427, 2-{[4-fluoro-1-methyl-1′-(8-methyl-4-oxo-3,4,5,6,7,8-hexahydro-pyrido[2,3-d]pyrimi-din-2-yl)-2-oxospiro [indoline-3,4′-piperidin]-6-yl]oxy}-N-(methyl-sulfonyl)acetamide], for which the half-maximal inhibitory concentration (IC50) at tankyrase 2 (TNKS 2) (setting [5]) and on tankyrase 1 (TNKS 1) (setting [6]) was < 20 nM in each case. Further, the GI50 in assay [1] (setting [7]) is 600 to 1000 nM.
As to `CN1CCCc2c1nc(N1CCC3(CC1)C(=O)N(C)c1cc(OCCN4CCCC4CO)cc(F)c13)[nH]c2=O` (stereo not drawn) [Example 394, 4-fluoro-6-{2-[2-(hy-droxymethyl)pyrrolidin-1-yl]ethoxy}-1-methyl-1′-(8-methyl-4-oxo-3,4,5,6,7,8-hexahydropyrido [2,3-d]pyrimidin-2-yl)spiro [indoline-3,4′-piperidin]-2(1H)-one], the IC50 at tankyrase 2 (TNKS 2) (setting [5]) and on tankyrase 1 (TNKS 1) (setting [6]) was < 20 nM in each case. The GI50 in assay [1] (setting [7]) lay in the range of 600 to 1000 nM.
As to `COc1ccc(F)c2c1NCC21CCN(c2nc3c(c(=O)[nH]2)CCCN3)CC1` [Example 474, 2-(4-fluoro-7-methoxyspiro[indoline-3,4′-piperidin]-1′-yl)-5,6,7,8-tetrahydropyrido[2,3-d]pyrimidin-4(3H)-one], the IC50 at tankyrase 2 (TNKS 2) (setting [5]) and at tankyrase 1 (TNKS 1) (setting [6]) was < 20 nM throughout. In assay [1] (setting [7]), the GI50 was 100 to 600 nM.
As to `CN1C(=O)C2(CCN(c3nc4c(c(=O)[nH]3)CCCC4)CC2)c2c(Cl)cc(OCCCN3CCOCC3)cc21` [Example 334], the concentration for half-maximal inhibition (IC50) at tankyrase 2 (TNKS 2) (setting [2]) and on tankyrase 1 (TNKS 1) (setting [3]) was < 20 nM throughout. In addition, in assay [1] (setting [4]), the GI50 lay in the range of 600 to 1000 nM.
As for `COc1ccc(Cl)c2c1N(CC(C)(C)O)C(=O)C21CCN(c2nc3c(c(=O)[nH]2)CCCN3C)CC1` [Example 446, 4-chloro-1′-(4-hy-droxy-8-methyl-6,7-dihydro-5H-py-rido[2,3-d]pyrimi-din-2-yl)-1-(2-hy-droxy-2-methyl-propyl)-7-methoxy-spiro[indole-3,4′-piperidine]-2-one], the IC50 at tankyrase 2 (TNKS 2) (setting [5]) and at tankyrase 1 (TNKS 1) (setting [6]) was < 20 nM in each case. For the same compound, the GI50 in assay [1] (setting [7]) was < 100 nM.
As to `O=c1[nH]c(N2CCC3(CC2)CN(Cc2ncccn2)c2cc(F)cc(F)c23)nc2c1CCCC2` [Example 316, 2-[4,6-difluoro-1-(pyrimidin-2-yl-methyl)spiro-[indoline-3,4′-piperidine]-1′-yl]-5,6,7,8-tetrahydro-quinazoline-4(3H)-one], the IC50 on tankyrase 2 (TNKS 2) (setting [2]) and at tankyrase 1 (TNKS 1) (setting [3]) was < 20 nM throughout. For the same compound, the GI50 in assay [1] (setting [4]) was in the range of 100 to 600 nM.
On to `CN1CCCc2c1nc(N1CCC3(CC1)C(=O)N(C)c1cc(N4CC(C(=O)O)C4)cc(F)c13)[nH]c2=O` [Example 423, 1-[4-fluoro-1-methyl-1′-(8-methyl-4-oxo-3,4,5,6,7,8-hexahydro-pyrido[2,3-d]pyrimi-din-2-yl)-2-oxospiro[in-doline-3,4′-piperidin]-6-yl]azetidine-3-carboxylic acid], for which the IC50 at tankyrase 2 (TNKS 2) (setting [5]) and at tankyrase 1 (TNKS 1) (setting [6]) was < 20 nM each time. Further, in assay [1] (setting [7]), the GI50 is < 100 nM.
`CN1CCCc2c1nc(N1CCC3(CC1)C(=O)N(CC(=N)N)c1cc(F)cc(F)c13)[nH]c2=O` [Example 430, [4,6-difluoro-1′-(8-methyl-4-oxo-3,4,5,6,7,8-hexahydropyrido[2,3-d]pyrimidin-2-yl)-2-oxospiro[indoline-3,4′-piperidine]-1(2H)-yl]ethanimidamide]: the 50% inhibitory concentration (IC50) on tankyrase 2 (TNKS 2) (setting [5]) and at tankyrase 1 (TNKS 1) (setting [6]) was < 20 nM throughout. The GI50 in assay [1] (setting [7]) lay in the range of 600 to 1000 nM.
As to `CN1C(=O)C2(CCN(c3nc4c(c(=O)[nH]3)CCCC4)CC2)c2c(Cl)cc(-c3nc(C(=O)N4CCOCC4)co3)cc21` [Example 323, 4-chloro-1-methyl-6-[4-(morpholine-4-carbonyl)oxazole-2-yl]-1′-(4-oxo-3,4,5,6,7,8-hexa-hydroquinazoline-2-yl)spiro[indoline-3,4′-piperidin]-2-one], the IC50 at tankyrase 2 (TNKS 2) (setting [2]) and at tankyrase 1 (TNKS 1) (setting [3]) was < 20 nM each time. Moreover, the GI50 in assay [1] (setting [4]) was in the range of 600 to 1000 nM.
For the compound `CN1CCCc2c1nc(N1CCC3(CC1)C(=O)N(C)c1c(C(N)=O)ccc(Cl)c13)[nH]c2=O` [Example 330, 4-chloro-1-methyl-1′-(8-methyl-4-oxo-3,4,5,6,7,8-hexahydro-pyrido[2,3-d]-pyrimidin-2-yl)-2-oxospiro-[indoline-3,4′-piperidine]-7-carboxamide], the IC50 at tankyrase 2 (TNKS 2) (setting [2]) and on tankyrase 1 (TNKS 1) (setting [3]) was < 20 nM each time. Also, in assay [1] (setting [4]), the GI50 is 600 to 1000 nM.
For the compound `CN1CCCc2c1nc(N1CCC3(CC1)C(=O)N(C)c1c(OCC4CCNCC4)ccc(F)c13)[nH]c2=O` [Example 421, 4-fluoro-1′-(4-hydroxy-8-methyl-6,7-dihydro-5H-pyrido[2,3-d]pyrimidin-2-yl)-1-meth-yl-7-(piperidin-4-yl-methoxy)spiro[indole-3,4′-piperidin]-2-one], the IC50 at tankyrase 2 (TNKS 2) (setting [5]) and on tankyrase 1 (TNKS 1) (setting [6]) was < 20 nM each time. In addition, the GI50 in assay [1] (setting [7]) was 100 to 600 nM.
Regarding `CN1CCCc2c1nc(N1CCC3(CC1)C(=O)N(C)c1cc(OCCN4CCS(=O)(=O)CC4)cc(F)c13)[nH]c2=O` [Example 361, 6-[2-(1,1-dioxidothio-morpholino)ethoxy]-4-fluoro-1-methyl-1′-(8-methyl-4-oxo-3,4,5,6,7,8-hexahydropy-rido[2,3-d]pyrimidin-2-yl)spiro [indoline-3,4′-piperidin]-2-one], the half-maximal inhibitory concentration (IC50) at tankyrase 2 (TNKS 2) (setting [2]) and on tankyrase 1 (TNKS 1) (setting [3]) was < 20 nM in each case. The GI50 in assay [1] (setting [4]) was in the range of 600 to 1000 nM.
As to `COCCN1C(=O)C2(CCN(c3nc4c(c(=O)[nH]3)CCCN4)CC2)c2c(F)cccc21` [Example 470, 4-fluoro-1′-(4-hydroxy-5,6,7,8-tetrahydroxypyrido[2,3-d]pyrimidin-2-yl)-1-(2-methoxyethyl)spiro[indole-3,4′-piperidin]-2-one], the half-inhibitory concentration (IC50) at tankyrase 2 (TNKS 2) (setting [5]) and at tankyrase 1 (TNKS 1) (setting [6]) was < 20 nM throughout. For the same compound, the GI50 in assay [1] (setting [7]) lay within 100 to 600 nM.
Regarding `CN1CCCc2c1nc(N1CCC3(CC1)C(=O)N(C)c1cc(N4CC(=O)N(Cc5ccccc5)C(=O)C4)cc(F)c13)[nH]c2=O` [Example 459, 1-benzyl-4-[4-fluoro-1-methyl-1′-(8-methyl-4-oxo-3,4,5,6,7,8-hexa-hydropyrido[2,3-d]pyrimidin-2-yl)-2-oxospiro[indole-3,4′-piperidine]-6-yl]piperazine-2,6-dione], the IC50 on tankyrase 2 (TNKS 2) (setting [5]) and on tankyrase 1 (TNKS 1) (setting [6]) was 20 to 200 nM each time. Also, the GI50 in assay [1] (setting [7]) lay in the range of 100 to 600 nM.
With `CN(C)CCOc1ccc(Cl)c2c1N(C)C(=O)C21CCN(c2nc3c(c(=O)[nH]2)CCCN3C)CC1` [Example 396, 4-chloro-7-[2-(dimethylamino)ethoxy]-1-methyl-1′-(8-methyl-4-oxo-3,4,5,6,7,8-hexahydro-pyrido [2,3-d]pyrimidin-2-yl)spiro [indoline-3,4′-piperidin]-2(1H)-one], the IC50 at tankyrase 2 (TNKS 2) (setting [5]) and at tankyrase 1 (TNKS 1) (setting [6]) was < 20 nM each time. Further, in assay [1] (setting [7]), the GI50 was 100 to 600 nM.
Regarding `CN1CCCc2c1nc(N1CCC3(CC1)C(=O)N(C)c1cc(OCC(=O)O)cc(F)c13)[nH]c2=O` [Example 392], the IC50 on tankyrase 2 (TNKS 2) (setting [5]) and on tankyrase 1 (TNKS 1) (setting [6]) was < 20 nM in each case. The GI50 in assay [1] (setting [7]) was in the range of 100 to 600 nM.
Regarding `CN1CCCc2c1nc(N1CCC3(CC1)C(=O)N(C)c1cc(OCCCN4CCCC4)cc(F)c13)[nH]c2=O` [Example 367, 4-fluoro-1-methyl-1′-(8-methyl-4-oxo-3,4,5,6,7,8-hexahydropy-rido[2,3-d]pyrimidin-2-yl)-6-[3-(pyrrolidin-1-yl)propoxy] spiro[indoline-3,4′-piperidin]-2-one], the half-maximal inhibitory concentration (IC50) on tankyrase 2 (TNKS 2) (setting [2]) and on tankyrase 1 (TNKS 1) (setting [3]) was < 20 nM throughout. The GI50 in assay [1] (setting [4]) lay within 100 to 600 nM.

The term IC50 denotes the concentration that gives 50% inhibition.
